The record followed here is ChEMBL document CHEMBL3745615, “Synthesis, characterization and biological evaluation of anti-cancer indolizine derivatives via inhibiting β-catenin activity and activating p53” (2016).

Each structure is given as a SMILES string.

The subject of assay [1] is A549. In words: Antiproliferative activity against human A549 cells after 3 days by CCK8 assay. Type of assay: functional. Further details: concentration or dose not given beside the values. On the technique in general: Formazan colour is commonly taken as a measure of viable cells.
The target in assay [2] is T1, Catenin beta-1 (Homo sapiens) (UniProt P35222).
T1 sequence (whole entry): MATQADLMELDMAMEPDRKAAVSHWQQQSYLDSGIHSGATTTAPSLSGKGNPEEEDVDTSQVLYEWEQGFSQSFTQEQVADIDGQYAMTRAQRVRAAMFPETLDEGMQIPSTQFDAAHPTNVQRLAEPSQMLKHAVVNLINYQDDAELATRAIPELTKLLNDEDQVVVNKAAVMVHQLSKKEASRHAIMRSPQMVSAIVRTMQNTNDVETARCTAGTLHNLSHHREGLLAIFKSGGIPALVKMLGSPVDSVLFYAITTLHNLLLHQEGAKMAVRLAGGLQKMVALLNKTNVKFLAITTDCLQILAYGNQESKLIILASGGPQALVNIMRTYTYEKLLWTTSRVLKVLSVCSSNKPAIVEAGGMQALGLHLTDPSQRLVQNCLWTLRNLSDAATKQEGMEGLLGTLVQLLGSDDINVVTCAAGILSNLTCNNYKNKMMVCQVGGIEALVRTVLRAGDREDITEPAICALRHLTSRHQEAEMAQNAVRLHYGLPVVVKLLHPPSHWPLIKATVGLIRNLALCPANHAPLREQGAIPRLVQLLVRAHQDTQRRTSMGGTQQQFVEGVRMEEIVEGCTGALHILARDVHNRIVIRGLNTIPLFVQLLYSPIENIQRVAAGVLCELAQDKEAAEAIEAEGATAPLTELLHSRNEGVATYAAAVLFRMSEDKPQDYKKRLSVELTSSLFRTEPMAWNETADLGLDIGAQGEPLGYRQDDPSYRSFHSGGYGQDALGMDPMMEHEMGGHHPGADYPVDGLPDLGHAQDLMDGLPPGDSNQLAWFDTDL
In words: Inhibition of beta-catenin transcriptional activity in human A549 cells after 24 hrs by luciferase reporter assay. Type of assay: cell-based. Further details: concentration or dose not given beside the values. On the technique in general: A reporter such as luciferase makes a cellular process visible.

Assay [3] relates to A549. In words: Induction of apoptosis in human A549 cells assessed as early apoptotic cells at 3 uM after 2 days by annexin V staining-based flow cytometric analysis (reference value: 1.3%). It counts as functional. In general terms: Flow cytometry measures light scatter and fluorescence of single cells or particles in a stream.
In assay [4] the test system is A549. In words: Induction of apoptosis in human A549 cells at 3 uM by annexin V staining-based flow cytometric analysis. Type of assay: functional, cell-based. To be noted: TDE = time-dependent effect.
Assay [5] relates to A549. In words: Induction of apoptosis in human A549 cells assessed as dead cells at 3 uM after 3 days by annexin V staining-based flow cytometric analysis (reference value: 0.2%). Type of assay: functional.
Assay [6] has as its system A549. The experiment in a line: Induction of apoptosis in human A549 cells assessed as live cells at 3 uM after 3 days by annexin V staining-based flow cytometric analysis (reference value: 98%). It counts as functional.
Assay [7] deals with A549. The experiment in a line: Induction of apoptosis in human A549 cells assessed as late apoptotic cells at 3 uM after 1 day by annexin V staining-based flow cytometric analysis (reference value: 0.5%). Type of assay: functional.
In assay [8] the test system is A549. In words: Induction of apoptosis in human A549 cells assessed as up regulation of phosphorylated p53 (S46) level at 3 uM incubated for 12 to 24 hrs by Western blot analysis. Type of assay: functional, cell-based. The settings on record: TDE = time-dependent effect.
Assay [9] deals with A549. The experiment in a line: Induction of apoptosis in human A549 cells assessed as late apoptotic cells at 3 uM after 3 days by annexin V staining-based flow cytometric analysis (reference value: 0.5%). It counts as functional.
The test system of assay [10] is A549. In words: Induction of apoptosis in human A549 cells assessed as live cells at 3 uM after 2 days by annexin V staining-based flow cytometric analysis (reference value: 98%). Type of assay: functional.
Assay [11] relates to A549. In words: Induction of apoptosis in human A549 cells assessed as early apoptotic cells at 3 uM after 3 days by annexin V staining-based flow cytometric analysis (reference value: 1.3%). Type of assay: functional.
Assay [12] deals with A549. The experiment in a line: Induction of apoptosis in human A549 cells assessed as dead cells at 3 uM after 1 day by annexin V staining-based flow cytometric analysis (reference value: 0.2%). It counts as functional.
Assay [13] concerns A549. The experiment in a line: Induction of apoptosis in human A549 cells assessed as dead cells at 3 uM after 2 days by annexin V staining-based flow cytometric analysis (reference value: 0.2%). Type of assay: functional.
Assay [14] has as its system A549. The experiment in a line: Induction of apoptosis in human A549 cells assessed as up regulation of phosphorylated p53 (S392) level at 3 uM incubated for 12 to 24 hrs by Western blot analysis. It counts as functional, cell-based. The settings on record: TDE = time-dependent effect.
Assay [15] deals with A549. In words: Induction of apoptosis in human A549 cells assessed as early apoptotic cells at 3 uM after 1 day by annexin V staining-based flow cytometric analysis (reference value: 1.3%). It counts as functional.
Assay [16] concerns A549. In words: Induction of apoptosis in human A549 cells assessed as live cells at 3 uM after 1 day by annexin V staining-based flow cytometric analysis (reference value: 98%). Type of assay: functional.
For assay [17], the system named is A549. In words: Induction of apoptosis in human A549 cells assessed as up regulation of phosphorylated p53 (S15) level at 3 uM incubated for 12 to 24 hrs by Western blot analysis. It counts as functional, cell-based. To be noted: TDE = time-dependent effect.
In assay [18] the test system is A549. In words: Induction of apoptosis in human A549 cells assessed as late apoptotic cells at 3 uM after 2 days by annexin V staining-based flow cytometric analysis (reference value: 0.5%). It counts as functional.

As to `O=C1CCCc2c1cc1cccn1c2C(=O)c1ccc(Cl)cc1`, the values for the Activity (with A549 [1]; in assay [2]) were 47.73% and 64.5%, respectively.
For the compound `CC(=O)c1cc2cccn2c(C(=O)c2ccc(Cl)cc2)c1C`, the values for the Activity (with A549 [1]; in [2]) were 79.46% and 52.9%, respectively.
On the same counts, the results for `Cc1c(C(=O)O)cc2cccn2c1C(=O)c1ccccc1` are 101.93% and 79.1%.
On the same counts, the results for `CCOC(=O)c1cc2cccn2c(C(=O)c2ccc(OC)cc2)c1N` are 98.46% and 86.4%.
Take `CCOC(=O)c1c(N)c(C#N)cc2cccn12`: the Activity in the assay on A549 [1] turned out to be 85.35%; in [2], 47%.
`COc1ccc(C(=O)c2c3c(cc4cccn24)C(=O)CCC3)cc1`: the Activity was determined as 51.36% in the assay with A549 [1] and 67.5% in assay [2].
For `O=C1CCCc2c1cc1cccn1c2C(=O)c1ccc(F)cc1`, the Activity worked out at 40.94% with A549 [1] and 66.2% in [2].
For `O=C1CCCc2c1cc1cccn1c2C(=O)c1ccccc1`, the Activity with A549 [1] was 55.44%; in assay [2], 67.3%.
On the same counts, the results for `N#Cc1cc2cccn2c(C(=O)c2ccc(F)cc2)c1N` are 1.51% and 22.2%.
As to `COc1ccc(C(=O)c2c(N)c(C#N)cc3cccn23)cc1`, the Activity with A549 [3] is 14.7%; in the assay with A549 [4], “tde”; in the assay with A549 [5], 0.95%; in the assay with A549 [6] it was 39.8%; with A549 [1], “Dose-dependent effect”; in the assay on A549 [1] (record 2), 0%. Further, the Activity in assay [2] is 7.03%; in the assay with A549 [7], 2.3%; with A549 [8], “tde”; with A549 [9], 43.65%; with A549 [10], 73.35%; in the assay on A549 [11], 15.6%. Further, the Activity with A549 [12] is 1.15%; with A549 [13] it was 2.25%; with A549 [14] it was “tde”; with A549 [15] it was 8%; in the assay with A549 [16] it was 88.55%; in the assay on A549 [17] it was “tde”. In addition, the Activity in the assay with A549 [18] is 9.7%.
As for `CC(=O)c1cc2cccn2c(C(=O)c2ccccc2)c1C`, the Activity with A549 [1] was 92.02%; in [2], 90.3%.
On the same counts, the results for `N#Cc1cc2cccn2c(C(=O)c2ccc(Cl)cc2)c1N` are 2.87% and 13.6%.
On to `N#Cc1cc2cccn2c(C(=O)c2ccccc2)c1N`, for which the Activity in the assay with A549 [1] was 13.75%; in [2] it was 26.2%.
On the same counts, the results for `N#Cc1cc2cccn2c(C(=O)c2ccc(OCc3ccccc3)cc2)c1N` are 35.05% and 69.1%.
